In brackets after ≈: the same amount, converted by molar mass. Read-outs that look alike come from different tables or passages of the source.
Experiments:
Assay in all cases: in vitro anti-bacterial activity, two-fold agar plate dilution method
Type in all cases: cell-based
[1] = test system: Escherichia coli CSH(RE45); details: 37° C., 20 hours
Experimental: (§1) The agent for preventing and treating bacterial infections was tested for in vitro anti-bacterial activity by the following two-fold agar plate dilution method. Each test strain was incubated for 20 hours in a bouillon for measuring sensitivity to obtain a test culture (containing about […]). Portions of sensitivity measuring agar medium containing varying concentrations of the antibacterial agent were each innoculated with a 0.005 ml portion of the culture, followed by incubation at 37° C. for 20 hours. The minimum growth inhibitory concentration (MIC) in μg/ml was then determined.
(§2) MIC=minimum inhibitory concentration

Pseudomonas cepacia = details: 37° C., 20 hours
Experimental: as §1, §2

[2] = test system: Escherichia coli NIHJ-JC2
Experimental: as §1, §2

Klebsiella pneumoniae = test system: Klebsiella pneumoniae
Experimental: as §1, §2

Serratia marcescens = test system: Serratia marcescens
Experimental: as §1, §2

Proteus vulgaris = test system: Proteus vulgaris
Experimental: as §1, §2

[3] = test system: Staphylococcus aureus 209P
Experimental: as §1, §2

Proteus mirabilis = test system: Proteus mirabilis
Experimental: as §1, §2

Pseudomonas aeruginosa = test system: Pseudomonas aeruginosa
Experimental: as §1, §2

[4] = Escherichia coli NIHJ-JC2, agar dilution, 37° C., 20 hours
[5] = agar dilution, 37° C., 20 hours
[6] = Staphylococcus aureus 209P, agar dilution, 37° C., 20 hours
[7] = Burkholderia cepacia, read-out: MIC
[8] = NIHJJC2, Escherichia coli NIHJ-JC2, agar dilution, 37° C., 20 hours, read-out: MIC
[9] = agar dilution, 37° C., 20 hours, read-out: MIC
[10] = Staphylococcus aureus 209P, agar dilution, 37° C., 20 hours, read-out: MIC

| Compound | MIC ([1]; read-out: MIC) [µg/mL] | MIC (Pseudomonas cepacia; [7]) [µg/mL] | MIC [2, 8] [µg/mL] | MIC (Serratia marcescens; [9]) [µg/mL] | MIC (Proteus vulgaris; [9]) [µg/mL] | MIC [3, 10] [µg/mL] | MIC (Proteus mirabilis; [9]) [µg/mL] | MIC (Pseudomonas aeruginosa; [9]) [µg/mL] | MIC (Klebsiella pneumoniae; 20 h) [µg/mL] | MIC (Serratia marcescens; 20 h) [µg/mL] | MIC (Proteus vulgaris; 20 h) [µg/mL] | MIC (Proteus mirabilis; 20 h) [µg/mL] | also measured |
| --- | --- | --- | --- | --- | --- | --- | --- | --- | --- | --- | --- | --- | --- |
| 7-{2-(2-aminothiazole-4-yl)-2-[potassium(2,2-dimethylacetate)oxyimino]acetamide}-3-(3-acetophenyl-1-imidazoliomethyl)-3-cephem-4-carboxylate | – | – | – | – | – | – | – | – | – | – | – | – | MIC [1]: 0.2 µg/mL; MIC (Pseudomonas cepacia): 25 µg/mL; MIC [2, 4]: 0.39 µg/mL; MIC (Klebsiella pneumoniae; [5]): 1.56 µg/mL; MIC (Serratia marcescens; [5]): 1.56 µg/mL; MIC (Proteus vulgaris; [5]): 0.2 µg/mL; MIC [3, 6]: 6.25 µg/mL; MIC (Proteus mirabilis; [5]): 0.2 µg/mL; MIC (Pseudomonas aeruginosa; [5]): 12.5 µg/mL |
| C=CCON=C(C(=O)NC1C(=O)N2C(C(=O)[O-])=C(Cn3cc[n+](CC(=O)c4ccccc4)c3)CSC12)c1csc(N)n1 (stereo not drawn) [B, 7-[2-(2-aminothiazole-4-yl)-2-(2-propenyloxyimino)acetamide]-3-(3-acetophenyl-1-imidazoliomethyl)-3-cephem-4-carboxylate] | – | – | – | – | – | – | – | – | – | – | – | – | MIC [1]: 0.10 µg/mL (≈ 0.165 µM); MIC (Pseudomonas cepacia): 1.56 µg/mL (≈ 2.57 µM); MIC [2, 4]: 0.39 µg/mL (≈ 0.642 µM); MIC (Klebsiella pneumoniae; [5]): 0.39 µg/mL (≈ 0.642 µM); MIC (Serratia marcescens; [5]): 1.56 µg/mL (≈ 2.57 µM); MIC (Proteus vulgaris; [5]): 0.78 µg/mL (≈ 1.28 µM); MIC [3, 6]: 0.20 µg/mL (≈ 0.329 µM); MIC (Proteus mirabilis; [5]): 0.78 µg/mL (≈ 1.28 µM); MIC (Pseudomonas aeruginosa; [5]): 6.25 µg/mL (≈ 10.3 µM) |
| C=CCO/N=C(\C(=O)NC1C(=O)N2C(C(=O)[O-])=C(C[n+]3ccn(-c4ccc(O)cc4)c3)CSC12)c1csc(N)n1 (stereo not drawn) [C, 7-[2-(2-aminothiazole-4-yl)-2-(2-propenyloxyimino)acetamide]-3-[3-(4-hydroxyphenyl)-1-imidazoliomethyl]-3-cephem-4-carboxylate] | 0.2 (≈ 0.344 µM) | 6.25 (≈ 10.7 µM) | 0.39 (≈ 0.671 µM) | 3.12 (≈ 5.36 µM) | 0.78 (≈ 1.34 µM) | 0.39 (≈ 0.671 µM) | 0.78 (≈ 1.34 µM) | 12.5 (≈ 21.5 µM) | – | – | – | – | MIC (Klebsiella pneumoniae; [9]): 0.78 µg/mL (≈ 1.34 µM) |
| C=CCO/N=C(\C(=O)NC1C(=O)N2C(C(=O)[O-])=C(C[n+]3ccn(CC=C)c3)CSC12)c1csc(N)n1 (stereo not drawn) [Compound A, 7-[2-(2-aminothiazole-4-yl)-2-(2-propenyloxyimino)acetamide]-3-[3-(2-propenyl)-1-imidazoliomethyl]-3-cephem-4-carboxylate] | 0.39 (≈ 0.736 µM) | 6.25 (≈ 11.8 µM) | 0.78 (≈ 1.47 µM) | – | – | 0.78 (≈ 1.47 µM) | – | 6.25 (≈ 11.8 µM) | 1.56 (≈ 2.95 µM) | 0.78 (≈ 1.47 µM) | 1.56 (≈ 2.95 µM) | 3.13 (≈ 5.91 µM) | – |
| C#CCn1cc[n+](CC2=C(C(=O)[O-])N3C(=O)C(NC(=O)/C(=N\OC)c4csc(N)n4)C3SC2)c1 (stereo not drawn) [Compound G, 7-[2-(2-aminothiazole-4-yl)-2-methoxyiminoacetamide]-3-[3-(2-propynyl)-1-imidazoliomethyl]-3-cephem-4-carboxylate] | 0.2 (≈ 0.399 µM) | 25 (≈ 49.8 µM) | 0.05 (≈ 0.0997 µM) | – | – | 0.78 (≈ 1.56 µM) | – | 6.25 (≈ 12.5 µM) | 0.1 (≈ 0.199 µM) | 1.56 (≈ 3.11 µM) | 0.2 (≈ 0.399 µM) | 0.2 (≈ 0.399 µM) | – |
| C=Cn1cc[n+](CC2=C(C(=O)[O-])N3C(=O)C(NC(=O)/C(=N\OC(C)(C)C(=O)O)c4csc(N)n4)C3SC2)c1 (stereo not drawn) [Compound M, 7-{2-(2-aminothiazole-4-yl)-2-[potassium(2,2-dimethylacetate)oxyimino]acetamide}-3-(3-vinyl-1-imidazoliomethyl)-3-cephem-4-carboxylate] | 0.1 | 12.5 | 0.2 | – | – | 6.25 | – | – | 0.39 | 0.78 | 0.1 | 0.1 | MIC (Pseudomonas aeruginosa; 20 h): 3.13 µg/mL |
| C=CCCn1c[n+](CC2=C(C(=O)[O-])N3C(=O)C(NC(=O)/C(=N\OC(C)(C)C(=O)O)c4csc(N)n4)C3SC2)c2ccccc21 (stereo not drawn) [Compound S, 7-{2-(2-aminothiazole-4-yl)-2-[potassium(2,2-dimethylacetate)oxyimino]acetamide}-3-[benz-3-N-(3-butenyl)-1-imidazoliomethyl]-3-cephem-4-carboxylate] | 0.39 | 25 | 0.78 | – | – | 0.78 | – | 6.25 | 3.13 | 3.13 | 0.78 | 3.13 | – |
| C#CCn1cc[n+](CC2=C(C(=O)[O-])N3C(=O)C(NC(=O)/C(=N\OCC=C)c4csc(N)n4)C3SC2)c1 (stereo not drawn) [D, 7-[2-(2-aminothiazole-4-yl)-2-(2-propenyloxyimino)acetamide]-3-[3-(2-propynyl)-1-imidazoliomethyl]-3-cephem-4-carboxylate] | 0.78 (≈ 1.48 µM) | 12.5 (≈ 23.7 µM) | 0.78 (≈ 1.48 µM) | 3.13 (≈ 5.93 µM) | 1.56 (≈ 2.96 µM) | 0.78 (≈ 1.48 µM) | 1.56 (≈ 2.96 µM) | 12.5 (≈ 23.7 µM) | 0.78 (≈ 1.48 µM) | – | – | – | – |
| C=CCO/N=C(\C(=O)NC1C(=O)N2C(C(=O)[O-])=C(C[n+]3ccn(C)c3)CSC12)c1csc(N)n1 (stereo not drawn) [E, 7-[2-(2-aminothiazole-4-yl)-2-(2-propenyloxyimino)acetamide]-3-(3-methyl-1-imidazoliomethyl)-3-cephem-4-carboxylate] | 0.05 (≈ 0.0993 µM) | > 50 | 0.2 (≈ 0.397 µM) | 1.56 (≈ 3.1 µM) | 0.39 (≈ 0.774 µM) | 0.78 (≈ 1.55 µM) | 0.78 (≈ 1.55 µM) | 12.5 (≈ 24.8 µM) | – | – | – | – | MIC (Klebsiella pneumoniae; [9]): 0.02 µg/mL (≈ 0.0397 µM) |
| C=CCn1cc[n+](CC2=C(C(=O)[O-])N3C(=O)C(NC(=O)/C(=N\OC)c4csc(N)n4)C3SC2)c1 (stereo not drawn) [F, 7-[2-(2-aminothiazole-4-yl)-2-methoxyiminoacetamide]-3-[3-(2-propenyl)-1-imidazoliomethyl]-3-cephem-4-carboxylate] | 0.2 (≈ 0.397 µM) | 50 (≈ 99.3 µM) | 0.1 (≈ 0.199 µM) | 0.78 (≈ 1.55 µM) | – | 6.25 (≈ 12.4 µM) | – | 25 (≈ 49.6 µM) | 0.1 (≈ 0.199 µM) | – | 0.39 (≈ 0.774 µM) | 0.39 (≈ 0.774 µM) | – |
| C=CCn1cc[n+](CC2=C(C(=O)[O-])N3C(=O)C(NC(=O)/C(=N\OC(C)(C)C(=O)O)c4csc(N)n4)C3SC2)c1 (stereo not drawn) [H, 7-{2-(2-aminothiazole-4-yl)-2-[potassium(2,2-dimethylacetate)oxyimino]acetamide}-3-[3-(2-propenyl)-1-imidazoliomethyl]-3-cephem-4-carboxylate] | 0.1 | 6.25 | 0.2 | 0.78 | 0.1 | 5 | 0.2 | 3.12 | – | – | – | – | MIC (Klebsiella pneumoniae; [9]): 0.78 µg/mL |
| CCCCCCn1cc[n+](CC2=C(C(=O)[O-])N3C(=O)C(NC(=O)/C(=N\OC(C)(C)C(=O)O)c4csc(N)n4)C3SC2)c1 (stereo not drawn) [J, 7-{2-(2-aminothiazole-4-yl)-2-[potassium(2,2-dimethylacetate)oxyimino]acetamide}-3-(3-n-hexyl-1-imidazoliomethyl)-3-cephem-4-carboxylate] | 0.2 | 6.25 | 0.78 | 0.78 | 0.2 | 6.25 | – | 3.12 | 1.56 | – | – | 0.39 | – |
| C#CCn1cc[n+](CC2=C(C(=O)[O-])N3C(=O)C(NC(=O)/C(=N\OC(C)(C)C(=O)O)c4csc(N)n4)C3SC2)c1 (stereo not drawn) [K, 7-{2-(2-aminothiazole-4-yl)-2-[potassium(2,2-dimethylacetate)oxyimino]acetamide}-3-[3-(2-propynyl)-1-imidazoliomethyl]-3-cephem-4-carboxylate] | 0.39 | 0.39 | – | – | 0.39 | 12.5 | 0.39 | – | 0.78 | 0.78 | – | – | MIC ([2]; Escherichia coli, NIHJJC2, 20 h): 0.2 µg/mL; MIC (Pseudomonas aeruginosa; 20 h): 3.13 µg/mL |
| Cn1c[n+](CC2=C(C(=O)[O-])N3C(=O)C(NC(=O)/C(=N\OC(C)(C)C(=O)O)c4csc(N)n4)C3SC2)c2ccccc21 (stereo not drawn) [L, 7-{2-(2-aminothiazole-4-yl)-2-[potassium(2,2-dimethylacetate)oxyimino]acetamide}-3-(benz-3-N-methyl-1-imidazoliomethyl)-3-cephem-4-carboxylate] | 0.2 | 6.25 | 0.2 | – | 0.2 | – | 0.2 | – | 0.78 | 0.78 | – | – | MIC ([3]; Staphylococcus aureus, 209P, 20 h): 1.56 µg/mL; MIC (Pseudomonas aeruginosa; 20 h): 3.13 µg/mL |
| CC(C)(O/N=C(\C(=O)NC1C(=O)N2C(C(=O)[O-])=C(C[n+]3ccn(C4CCCCC4)c3)CSC12)c1csc(N)n1)C(=O)O (stereo not drawn) [N, 7-{2-(2-aminothiazole-4-yl)-2-[potassium(2,2-dimethylacetate)oxyimino]acetamide}-3-(3-cyclohexyl-1-imidazoliomethyl)-3-cephem-4-carboxylate] | 0.1 | 25 | 0.2 | 1.56 | 0.2 | 6.25 | 0.2 | 6.25 | 0.78 | – | – | – | – |
| CC(C)(O/N=C(\C(=O)NC1C(=O)N2C(C(=O)[O-])=C(C[n+]3ccn(-c4ccc(O)cc4)c3)CSC12)c1csc(N)n1)C(=O)O (stereo not drawn) [O, 7-{2-(2-aminothiazole-4-yl)-2-[potassium(2,2-dimethylacetate)oxyimino]acetamide}-3-[3-(4-hydroxyphenyl)-1-imidazoliomethyl]-3-cephem-4-carboxylate] | 0.1 | 25 | 0.2 | – | – | 6.25 | – | 6.25 | 0.78 | 0.78 | 0.1 | 0.2 | – |
